Here are results for 29 sequences from the OligoGym collection.

Values joined by “and” are separate entries in the source; they are usually repeats but may differ in a detail not shown here. Identical values can stand only once. After the bases stand the sugars from the 5' end (letter, count) and the backbone: PS all phosphorothioate, else s phosphorothioate and o phosphodiester by linkage. Methylation of C is not given here. e = 2'-O-(2-methoxyethyl) (MOE); k = constrained ethyl (cEt); d = 2'-deoxy (DNA)

The target of this data set is SOD1. The settings on record: ASO.

For the setting “HepG2, 3 µM”, “AAACTATACAAATCTTC (sugars e3 k2 d7 k2 e3, PS)” had a target mRNA inhibition of 26%.

“AAATCTTCCAAGTGATC (sugars e2 k2 d9 k2 e2, PS)”: the target mRNA inhibition (HepG2, 5 µM) was determined as 48%.

Regarding “AAATTCTGACAAGTTTA (sugars e3 k2 d7 k2 e3, PS)”, the target mRNA inhibition (HepG2, 3 µM) worked out at 21%.

Regarding “AACATGGAATCCATGCA (sugars e3 k2 d7 k2 e3, PS)”, the target mRNA inhibition (HepG2, 3 µM) came out at 10%.

“AAGTCTCCAACATGCCTCTC (sugars e5 d10 e5, PS)”: the target mRNA inhibition (HepG2, 5 µM) is 20% and 6%.

With “AAGTGCCATACAGGGTT (sugars e2 k2 d8 k2 e3, PS)”, the target mRNA inhibition (HepG2, 5 µM) worked out at 15%.

Under “HepG2, 3 µM”, “AATACCCATCTGTGATT (sugars e3 k2 d7 k2 e3, PS)” displayed a target mRNA inhibition of 7%.

Consider “AATCAGTTTCTCACTAC (sugars e2 k2 d8 k2 e3, PS)”, for which the target mRNA inhibition (HepG2, 5 µM) turned out to be 34%.

Under “HepG2, 3 µM”, “AATCCATGCAGGCCTTC (sugars e3 k2 d7 k2 e3, PS)” had a target mRNA inhibition of 13%.

“AATCTTCCAAGTGATCA (sugars e3 k2 d7 k2 e3, PS)” yielded a target mRNA inhibition (HepG2, 3 µM) of 23%.

Regarding “AATGTTTATCAGGATA (sugars ekddddddddekekee, linkages s1 o1 s8 o3 s2)”, the target mRNA inhibition worked out at 10% (A431, 0.12 µM); 30% (A431, 0.6 µM); 51% (A431, 3 µM); 72% (A431, 15 µM).

As for “AATGTTTATCAGGATAC (sugars e2 k2 d8 k2 e3, PS)”, the target mRNA inhibition is 51% (HepG2, 0.1875 µM); 79% (HepG2, 0.75 µM); 92% (HepG2, 3 µM); 89% (HepG2, 4 µM); 96% (HepG2, 12 µM).

Take “AATGTTTATCAGGATAC (sugars e2 k2 d9 k2 e2, PS)”: the target mRNA inhibition came out at 43% (HepG2, 0.1875 µM); 75% (HepG2, 0.75 µM); 91% (HepG2, 3 µM); 90% (HepG2, 4 µM); 97% (HepG2, 12 µM).

“AATGTTTATCAGGATACATT (sugars e5 d10 e5, PS)”: the target mRNA inhibition (HepG2, 5 µM) amounted to 54%.

As to “AATGTTTATTGGGCGAT (sugars e2 k2 d8 k2 e3, PS)”, the target mRNA inhibition (HepG2, 4 µM) was determined as 61%.

The sequence “AATGTTTATTGGGCGAT (sugars e2 k2 d9 k2 e2, PS)” yielded a target mRNA inhibition (HepG2, 4 µM) of 64%.

“AATTACACCACAAGCCA (sugars e2 k2 d9 k2 e2, PS)” had a target mRNA inhibition (HepG2, 4 µM) of 56%.

For “ACAAGTTTAATACCCAT (sugars e2 k2 d8 k2 e3, PS)”, the target mRNA inhibition (HepG2, 5 µM) was 58%.

Sequence “ACACCACAAGCCAAACG (sugars e2 k2 d8 k2 e3, PS)” came in with a target mRNA inhibition (HepG2, 4 µM) of 27%.

For the sequence “ACACCACAAGCCAAACG (sugars e2 k2 d9 k2 e2, PS)”, the target mRNA inhibition (HepG2, 4 µM) was 45%.

As to “ACACTTTTAAGATTACAGTG (sugars e5 d10 e5, PS)”, for the setting “HepG2, 5 µM”, the target mRNA inhibition was 15%.

For the sequence “ACAGCTAGCAGGATAAC (sugars e3 k2 d7 k2 e3, PS)”, the target mRNA inhibition (HepG2, 3 µM) stood at 20%.

Sequence “ACAGGGTTTTTATTCAC (sugars e2 k2 d9 k2 e2, PS)” gave a target mRNA inhibition (HepG2, 5 µM) of 47%.

As to “ACAGTGTTTAATGTTT (sugars kekeddddddddekek, linkages s1 o3 s8 o1 s2)”, the target mRNA inhibition is 0% (A431, 0.12 µM); 0% (A431, 0.6 µM); 0% (A431, 3 µM); 6% (A431, 15 µM); 55% (HepG2, 0.222 µM); 68% (HepG2, 0.667 µM). The target mRNA inhibition turned out to be 78% (HepG2, 2 µM) and 88% (HepG2, 6 µM).

Consider “ACAGTGTTTAATGTTTA (sugars e2 k2 d8 k2 e3, linkages s1 o2 s9 o2 s2)”, for which the target mRNA inhibition is 17% (A431, 0.12 µM); 8% (A431, 0.6 µM); 26% (A431, 3 µM); 37% (A431, 15 µM); 61% (HepG2, 0.222 µM); 73% (HepG2, 0.667 µM). Moreover, the target mRNA inhibition is 91% (HepG2, 2 µM) and 88% (HepG2, 6 µM).

“ACATCCAAGGGAATGTT (sugars e3 k2 d7 k2 e3, PS)” gave a target mRNA inhibition (HepG2, 3 µM) of 30%.

With “ACATTTCTACAGCTAG (sugars ekddddddddekekee, linkages s1 o1 s8 o3 s2)”, the target mRNA inhibition is, setting by setting: (A431, 0.12 µM) 1%; (A431, 0.6 µM) 27%; (A431, 3 µM) 32%; (A431, 15 µM) 47%.

As to “ACCACAAGCCAAACGACTTC (sugars e5 d10 e5, PS)”, the target mRNA inhibition (HepG2, 5 µM) was found to be 28%.

“ACCTTCACTGGTCCATT (sugars e3 k2 d7 k2 e3, PS)” showed a target mRNA inhibition (HepG2, 3 µM) of 44%.
